Data on ten compounds can be found in patent publication US20040053822A1, “Inducing cellular immune responses to mage2/3 using peptide and nucleic acid compositions” (priority 2002, published 2004).

Molecules are shown by their SMILES.

The subject of test [1] is melanoma cell lines (624 mel and 888 mel). The experiment in a line: Primary CTL induction, 51Cr release on tumor targets (endogenous recognition). In kind it is cell-based, human. The method, then: (§1) The melanoma cells were treated with 100 U/ml IFNγ (Genzyme) for 48 hours at 37° C. before use as targets in the ^51Cr release and in situ IFNγ assays.
(§2) Restimulation of the induction cultures with peptide-pulsed adherent cells: Seven and fourteen days after the primary induction the cells were restimulated with peptide-pulsed adherent cells. The PBMCS were thawed and washed twice with RPMI and DNAse. The cells were resuspended at 5×10^6 cells/ml and irradiated at ˜4200 rads. The PBMCs were plated at 2×10^6 in 0.5 ml complete medium per well and incubated for 2 hours at 37° C. The plates were washed twice with RPMI by tapping the plate gently to remove the nonadherent cells and the adherent cells pulsed with 10 μg/ml of peptide in the presence of 3 μg/ml β2 microglobulin in 0.25 ml RPMI/5% AB per well for 2 hours at 37° C. Peptide solution from each well was aspirated and the wells were washed once with RPMI. Most of the media was aspirated from the induction cultures (CD8+ cells) and brought to 0.5 ml with fresh media. The cells were then transferred to the wells containing the peptide-pulsed adherent cells. Twenty four hours later rhuman IL10 was added at a final concentration of 10 ng/ml and rhuman IL2 was added the next day and again 2-3 days later at 50 IU/ml (Tsai et al., Critical Reviews in Immunology 18(l-2):65-75, 1998). Seven days later the cultures were assayed for CTL activity in a ^51Cr release assay. In some experiments the cultures were assayed for peptide-specific recognition in the in situ IFNγ ELISA at the time of the second restimulation followed by assay of endogenous recognition 7 days later. After expansion, activity was measured in both assays for a side by side comparison.
Seven days after the second restimulation, cytotoxicity was determined in a standard (5 hr) ^51Cr release assay by assaying individual wells at a single E:T. Peptide-pulsed targets were prepared by incubating the cells with 10 μg/ml peptide overnight at 37° C.
Adherent target cells were removed from culture flasks with trypsin-EDTA. Target cells were labelled with 200 μCi of ^51Cr sodium chromate (Dupont, Wilmington, Del.) for 1 hour at 37° C. […] Target cells.(100 μl) and 100 μl of effectors were plated in 96 well round-bottom plates and incubated for 5 hours at 37° C. At that time, 100 μl of supernatant were collected from each well and percent lysis was determined according to the formula: [(cpm of the test sample−cpm of the spontaneous ^51Cr release sample)/(cpm of the maximal ^51Cr release sample−cpm of the spontaneous ^51Cr release sample)]×100. Maximum and spontaneous release were determined by incubating the labelled targets with 1% Trition X-100 and media alone, respectively.
CTL Expansion. […] The cells were split if the cell concentration exceeded 1×10^6/ml and the cultures were assayed between days 13 and 15 at E:T ratios of 30, 10, 3 and 1:1 in the ^51Cr release assay or at 1×10^6/ml in the in situ IFNγ assay using the same targets as before the expansion.
The A2-supermotif cross-reactive binding peptides that were selected for further evaluation were tested in the cellular assay for the ability to induce peptide-specific CTL in normal individuals.

In test [2] the test system is 0.221A2.1 cell line (peptide-loaded target). The experiment in a line: Primary CTL induction from normal donor PBMC, 51Cr release on peptide-pulsed targets. Type of test: cell-based, human. The method, then:
as §1
The monocytes were purified by plating 10×10^6 PBMC/well in a 6-well plate. After 2 hours at 37° C., the non-adherent cells were removed by gently shaking the plates and aspirating the supernatants. The wells were washed a total of three times with 3 ml RPMI to remove most of the non-adherent and loosely adherent cells. Three ml of complete medium containing 50 ng/ml of GM-CSF and 1,000 U/ml of IL4 were then added to each well. DC were used for CTL induction cultures following 7 days of culture.
Induction of CTL with DC and Peptide: CD8+ T-cells were isolated by positive selection with Dynal immunomagnetic beads (Dynabeads® M-450) and the detacha-bead® reagent. Typically about 200-250×10^6 PBMC were processed to obtain 24×10^6 CD8^+ T-cells (enough for a 48-well plate culture). Briefly, the PBMCs were thawed in RPMI with 30 μg/ml DNAse, washed once with PBS containing 1% human AB serum and resuspended in PBS/1% AB serum at a concentration of 20×10^6 cells/ml. The magnetic beads were washed 3 times with PBS/AB serum, added to the cells (140 μl beads/20×10^6 cells) and incubated for 1 hour at 4° C. with continuous mixing. The beads and cells were washed 4× with PBS/AB serum to remove the nonadherent cells and resuspended at 100×10^6 cells/ml (based on the original cell number) in PBS/AB serum containing 100 μ/ml detacha-bead® reagent and 30 μg/ml DNAse. The mixture is incubated for 1 hour at room temperature with continuous mixing. The beads were washed again with PBS/AB/DNAse to collect the CD8+ T-cells. The DC were collected and centrifuged at 1300 rpm for 5-7 minutes, washed once with PBS with 1% BSA, counted and pulsed with 40 μg/ml of peptide at a cell concentration of 1-2×10^6/ml in the presence of 3 μg/ml β2- microglobulin for 4 hours at 20° C. The DC were then irradiated (4,200 rads), washed 1 time with medium and counted again.
Setting up induction cultures: 0.25 ml cytokine-generated DC (@1×10^5 cells/ml) were co-cultured with 0.25 ml of CD8+ T-cells (@2×10^6 cell/ml) in each well of a 48-well plate in the presence of 10 ng/ml of IL-7. rHuman IL10 was added the next day at a final concentration of 10 ng/ml and rhuman IL2 was added 48 hours later at 10 IU/ml.
as §2, with “comparison. […]” for “comparison.”

For the next test, the target named is HLA-A*0202 (Homo sapiens, UniProt P04439, D140Y/D185E/D98H/E176V/E277Q/G131W/G231S/I119L/I121R/I166T/I218V/L180W/L300P/L318F/N151K/N90K/P208A/P217A/Q67R/Q86G/Q94H/R138H/R169H/T345S). Put plainly: Purified HLA class I peptide binding assay, A*0202. Particulars: binding affinity, A2 supermotif peptides and analogs.
Another test addresses HLA-A*0201 (Homo sapiens, UniProt P04439, D140Y/D185E/D98H/E176V/E277Q/G131W/G231S/I119V/I121R/I166T/I218V/L300P/L318F/N151K/N90K/P208A/P217A/Q86G/Q94H/R138H/R169H/T345S). Put plainly: Purified HLA class I peptide binding assay, A*0201. Conditions: binding affinity, A2 supermotif peptides and analogs.
Another test has as its target HLA-A*0203 (Homo sapiens, UniProt P04439, A173T/D140Y/D185E/D98H/E277Q/G131W/G231S/I119V/I121R/I166T/I218V/L180W/L300P/L318F/N151K/N90K/P208A/P217A/Q86G/Q94H/R138H/R169H/T345S). The experiment in a line: Purified HLA class I peptide binding assay, A*0203. Conditions: binding affinity, A2 supermotif peptides and analogs.
The target in another test is HLA-A*6802 (Homo sapiens, UniProt P04439, A269V/D140Y/D185E/E176V/E277Q/E87N/F33Y/G231S/I121R/I166T/I218V/L180W/L300P/L318F/N151K/P208A/P217A/Q86R/R138H/R169H/S129P/T345S/V36M). The experiment in a line: Purified HLA class I peptide binding assay, A*6802. Conditions: binding affinity, A2 supermotif peptides and analogs.
[3] abbreviates: number of donors positive over total tested, tumor targets.
Where [4] appears, read: number of donors positive over the total number of donors tested.

Regarding `CSCC[C@H](NC(=O)[C@@H](N)CCCCN)C(=O)N[C@H](C(=O)N[C@@H](CCC(=O)O)C(=O)N[C@@H](CC(C)C)C(=O)N[C@H](C(=O)N[C@@H](Cc1c[nH]cn1)C(=O)N[C@@H](Cc1ccccc1)C(=O)N[C@@H](CC(C)C)C(=O)N[C@@H](CC(C)C)C(=O)O)C(C)C)C(C)C`, in test [1] (setting [3]), the “CTL Tumor” value is recorded as 0/1^. Moreover, the “CTL Wild-type” value in test [2] (setting [4]) is 1/1.
On to `CC[C@H](C)[C@H](NC(=O)[C@@H](N)CCCCN)C(=O)N[C@@H](Cc1c[nH]c2ccccc12)C(=O)N[C@@H](CCC(=O)O)C(=O)N[C@@H](CCC(=O)O)C(=O)N[C@@H](CC(C)C)C(=O)N[C@@H](CO)C(=O)N[C@@H](CCSC)C(=O)N[C@@H](CC(C)C)C(=O)O`, for which the half-maximal inhibitory concentration (IC50) (in general, the concentration that inhibits the measured activity by half) at HLA-A*0202 was 0.642 µM; at HLA-A*0201, 0.167 µM; on HLA-A*0203 it was 0.175 µM; at HLA-A*6802 it was over 10 µM.
As for `CC[C@H](C)[C@H](NC(=O)CNC(=O)[C@H](Cc1ccccc1)NC(=O)[C@@H](NC(=O)[C@@H](N)CC(C)C)C(C)C)C(=O)N[C@@H](CCC(=O)O)C(=O)N[C@H](C(=O)N[C@H](C(=O)N[C@@H](CCC(=O)O)C(=O)N[C@H](C(=O)O)C(C)C)C(C)C)C(C)C`, in test [1] (setting [3]), the “CTL Tumor” value is 0/3^. Also, the “CTL Wild-type” value in test [2] (setting [4]) is listed as 4/4.
As to `CC[C@H](C)[C@H](NC(=O)CNC(=O)[C@H](Cc1ccccc1)NC(=O)[C@@H](NC(=O)[C@H](CC(C)C)NC(=O)[C@@H](N)CCC(N)=O)C(C)C)C(=O)N[C@@H](CCC(=O)O)C(=O)N[C@@H](CC(C)C)C(=O)N[C@@H](CCSC)C(=O)N[C@@H](CCC(=O)O)C(=O)N[C@H](C(=O)O)C(C)C`, the “CTL Tumor” value in test [1] (donors positive over total tested, positive result seen after the second restim.) is recorded as 1/3^2.
On to `CC(C)C[C@H](NC(=O)[C@H](CC(C)C)NC(=O)[C@H](Cc1ccccc1)NC(=O)[C@H](Cc1c[nH]cn1)NC(=O)[C@@H](NC(=O)[C@H](CC(C)C)NC(=O)[C@H](CCC(=O)O)NC(=O)[C@H](C)NC(=O)[C@@H](NC(=O)[C@@H](N)CCCCN)C(C)C)C(C)C)C(=O)O`, for which, in test [1] (setting [3]), the “CTL Tumor” value was 0/1^. Also, in test [2] (setting [4]), the “CTL Wild-type” value is given as 0/1.
On to `CSCC[C@H](NC(=O)[C@@H](N)CCCCN)C(=O)N[C@H](C(=O)N[C@@H](CCC(=O)O)C(=O)N[C@@H](CC(C)C)C(=O)N[C@H](C(=O)N[C@@H](Cc1c[nH]cn1)C(=O)N[C@@H](Cc1ccccc1)C(=O)N[C@@H](CC(C)C)C(=O)O)C(C)C)C(C)C`, for which the “CTL Tumor” value in test [1] (setting [3]) is given as 0/1^. In addition, the “CTL Wild-type” value in test [2] (setting [4]) was 1/1.
As for `CC[C@H](C)[C@H](N)C(=O)N[C@@H](CCSC)C(=O)N1CCC[C@H]1C(=O)N[C@@H](CCCCN)C(=O)N[C@@H](C)C(=O)NCC(=O)N[C@@H](CC(C)C)C(=O)N[C@@H](CC(C)C)C(=O)N[C@H](C(=O)N[C@H](C(=O)N[C@H](C(=O)O)C(C)C)[C@@H](C)CC)[C@@H](C)CC`, the “CTL Tumor” value in test [1] (setting [3]) is on record as 0/3^. Moreover, the “CTL Wild-type” value in test [2] (setting [4]) is on record as 3/4.
On the same counts, the results for `CSCC[C@H](NC(=O)[C@@H](N)CCCCN)C(=O)N[C@H](C(=O)N[C@@H](CCC(=O)O)C(=O)N[C@@H](CC(C)C)C(=O)N[C@H](C(=O)N[C@@H](Cc1c[nH]cn1)C(=O)N[C@@H](Cc1ccccc1)C(=O)N[C@@H](CC(C)C)C(=O)N[C@@H](CC(C)C)C(=O)N[C@@H](CC(C)C)C(=O)O)C(C)C)C(C)C` are 0/1^ and 1/1.
On to `CC[C@H](C)[C@H](NC(=O)[C@@H](N)CCCCN)C(=O)N[C@@H](Cc1c[nH]c2ccccc12)C(=O)N[C@@H](CCC(=O)O)C(=O)N[C@@H](CCC(=O)O)C(=O)N[C@@H](CC(C)C)C(=O)N[C@@H](CO)C(=O)N[C@H](C(=O)N[C@@H](CC(C)C)C(=O)O)C(C)C`, for which, in test [1] (setting [3]), the “CTL Tumor” value is 0/3^. Besides, the “CTL Wild-type” value in test [2] (Number of donors yielding a positive response/total tested) and in test [2] (setting [4]) was 3/4 throughout.
Turning to `CC(C)C[C@H](NC(=O)[C@H](Cc1ccc(O)cc1)NC(=O)[C@H](CCC(=O)O)NC(=O)[C@H](CO)NC(=O)[C@H](C)NC(=O)[C@@H](N)CCCCN)C(=O)N[C@@H](CCC(N)=O)C(=O)N[C@@H](CC(C)C)C(=O)N[C@H](C(=O)O)C(C)C`, in test [1] (setting [3]), the “CTL Tumor” value is listed as 0/2^. For the same compound, the “CTL Wild-type” value in test [2] (setting [4]) is recorded as 2/4.
